Here are results for 89 compounds from a melting point compilation (Tetko et al.; mined from patent text by program, amines drawn as free bases though some values may be those of a salt).

Bounds are passed on as bounds.

In the case of `CCOCc1nc2c(N)nc3ccccc3c2n1NC1CCCCC1`, the melting point (usually the temperature, or range, at which the solid turns liquid) lay within 143 to 145 °C.

The compound `CCc1nc(OC)c(NC(=O)N2CCN(c3cc(OC)cc(OC)c3)CC2)cc1C(=O)Nc1cc(CO)cc(Nc2c3ccccc3nc3ccccc23)c1` yielded a melting point of 170 to 172 °C.

The compound `CC1(C)CC(N2CCN(Cc3ccccc3)C2=O)c2cc(C#N)ccc2O1` (centres undefined) had a melting point of 45 to 48 °C.

`O=C(C#CCCc1cccc(CF)n1)Nc1ccc(F)cc1` showed a melting point of 110 °C.

Turning to `CCOC(=O)C1OC1C(=O)NC(CC(C)C)C(OC)c1ccccc1` (centres undefined), the melting point lay in the range of 108 to 109 °C.

In the case of `CCN[C@H]1CCC[C@H](Oc2ccc3[nH]ncc3c2C)C1` (relative stereo), the melting point was in the range of 95 to 97 °C.

`CC12CC(F)C3c4ccc(O)cc4CC(CCCCCN4CCCC4CSCCCC(F)(F)C(F)(F)F)C3C1CCC2O` (centres undefined) registered a melting point of 174 to 176 °C.

As for `O=[N+]([O-])c1ccc(NCCCn2ccnc2)cc1`, the melting point is 130 to 132 °C.

Take `CCCOc1ccc(S(=O)(=O)N2CCN(CCOC(=O)OCC)CC2)cc1-c1nc2c(CCC)cn(CC)c2c(=O)[nH]1`: the melting point lay within 135 to 136 °C.

Compound `CCCCC(CC)COC(=O)c1cccc(S(N)(=O)=O)c1` (centres undefined) gave a melting point of 40 to 42 °C.

For the compound `Cc1ccc(NC(=O)c2cccc(N3CCOCC3)c2)cc1N`, the melting point was in the range of 192 to 193 °C.

The compound `COc1cccc(N2CCN(c3ccc(S(=O)(=O)N[C@@H](Cc4ccccc4)C(=O)O)cc3)CC2)c1` had a melting point of 137 to 139 °C.

For the compound `CCOc1nn(Cc2ccc(OCc3ccc4ccccc4n3)nc2)cc1CCC(=O)O`, the melting point lay in the range of 133 to 134 °C.

As to `O=S(=O)(/C=C/c1ccc(Br)cc1)CS(=O)(=O)/C=C/c1ccc(Br)cc1`, the melting point lay within 213 to 215 °C.

Take `O=C(O)c1cccc2ccoc12`: the melting point was 159 to 161 °C.

Consider `COC1=C(OC)C(=O)C(CCCCCCCCCCCCCCCCCC(=O)O)=C(C)C1=O`, for which the melting point fell in the range of 77 to 79 °C.

For the compound `Cc1oc(-c2ccco2)nc1COc1ccc(CCCC2OC(=O)NC2=O)cc1O` (centres undefined), the melting point lay within 152 to 153 °C.

`CC(CC(=O)Nc1c(Cl)ccc2nc(N3CCNCC3)ccc12)c1ccccc1` (centres undefined): the melting point was 194 to 196 °C.

For the compound `O=C(O)CN1C(=O)C(=Cc2ccc(-c3ccccc3)cc2)SC1=S`, the melting point was in the range of 258 to 262 °C.

In the case of `NCCCc1ccc(OCCC2Oc3ccccc3N(Cc3ccc(Cl)cc3)C2=O)cc1` (centres undefined), the melting point lay in the range of 95 to 97 °C.

`CCC12CCC3C4CCC(=O)C=C4CCC3C1=CC=C2c1ccccc1` (centres undefined) displayed a melting point of 191 °C.

Consider `CCCCCN1C(=O)C(CCC(=O)O)(NC(=O)c2cc3ccccc3n2CCC#N)c2ccccc21` (centres undefined), for which the melting point stood at 125 °C.

On to `COC(=O)CNC(C)=S`, for which the melting point is 78 to 79 °C.

`Cc1cc(OS(=O)(=O)C(F)(F)F)ccc1-c1cc(C(F)(F)F)nn1-c1ccc(S(C)(=O)=O)cc1` gave a melting point of 175 °C.

On to `NNc1nnc(Cl)cc1N`, for which the melting point is 190 °C.

`COC(=O)c1ccc(-c2cnc3[nH]c(=O)n(CC4CCCCC4)c3n2)cc1` gave a melting point of 253 to 255 °C.

Regarding `CCC(=O)Nc1cc(NC(=O)CC)cc([N+](=O)[O-])c1`, the melting point is 197 to 198 °C.

Compound `Clc1cccc(-c2nnnn2Cc2cscn2)c1Cl` registered a melting point of 153 to 154 °C.

On to `COC(C)C(=O)Nc1ccc(C2=NNC(=O)CC2)cc1` (centres undefined), for which the melting point lay within 245 to 247 °C.

Compound `CCCCCC/C=C/[C@@H](O)[C@H](CO)N=[N+]=[N-]` displayed a melting point of 29 to 30 °C.

The compound `COC(=O)C(=C1SCCCN1C(=O)C(Cl)Cl)[N+](=O)[O-]` gave a melting point of 122 °C.

`COc1cc(C2c3cc4c(cc3C(NC3=CC(=O)N(Cc5ccc(F)cc5)C3=O)C3COC(=O)C23)OCO4)cc(OC)c1O` (centres undefined) yielded a melting point of 214 to 216 °C.

Regarding `COC(=O)c1ccccc1C=CC(=O)C=Cc1ccccc1C(=O)OC`, the melting point lay in the range of 221 to 223 °C.

On to `COc1cc(N)c(Cl)cc1C(=O)NCC1CCN(CCCCCCOCc2ccccc2)CC1`, for which the melting point was 91 to 95 °C.

`CCOC(=O)CCCC(CNC(=O)OC(C)(C)C)c1ccccc1` (centres undefined) showed a melting point of 82 to 84 °C.

The compound `Cc1cc(C)cc(Oc2ccc(Oc3cc(C)cc(C)c3)cc2)c1` registered a melting point of 103 °C.

Compound `CCC(C)CNc1nc2ccc(Sc3nnc4n3N=C(c3ccc(F)cc3)CC4)cc2s1` (centres undefined) gave a melting point of 220 °C.

Compound `Cc1cc(Cl)ccc1CCN(C(=O)C(C)Cl)c1ccccc1` (centres undefined) showed a melting point of 128 °C.

With `O=C1c2cc3nnn(Cc4cccc(F)c4)c(=O)c3cc2OC2CCCN12` (centres undefined), the melting point lay in the range of 183 to 185 °C.

Compound `CC(=O)OCCn1c(C)nc2ccccc2c1=O` displayed a melting point of 158 to 160 °C.

`COc1ccc(C2(CCCCl)S(=O)(=O)CCCS2(=O)=O)cc1OC` registered a melting point of 183 to 184 °C.

On to `O=Cc1cc(O)c(O)c(C=O)c1CCCCC(=O)O`, for which the melting point is 148 to 152 °C.

`COC(=O)CCc1cc(Cl)ccc1C(=O)CCCNC(C)=O` came in with a melting point of 46 to 48 °C.

In turn, `CCOC(=O)c1nc2cc(C(C(C)C)n3ccnc3)ccc2[nH]c1=O` (centres undefined) came in with a melting point of 230 °C.

For the compound `NC(=O)NCCNc1n[nH]c2ncnc(Nc3cccc(Cl)c3)c12`, the melting point lay in the range of 212 to 214 °C.

The compound `N#Cc1ccccc1Sc1ccc(Cl)cc1` showed a melting point of 82 °C.

In the case of `CCOP(=O)(Cc1ccc(C(=O)O)s1)OCC`, the melting point was 77 to 78 °C.

The compound `Cc1cccc(C)c1N1C(=O)C(=O)N(C)C1=S` registered a melting point of 144 to 146 °C.

On to `CC1(C)CCC(C)(C)c2cc(CC#Cc3ccc(C(=O)O)c(O)c3)c(O)cc21`, for which the melting point lay within 216 to 217 °C.

In turn, `CCOc1ccc(-c2ccc(C3(O)CN4CCC3CC4)cc2)cc1` (centres undefined) returned a melting point of 199 to 200 °C.

Compound `Clc1cc(Cl)cc(-c2cc3cc(Cl)cc(Cl)c3[nH]2)c1` had a melting point of 189 to 190 °C.

Regarding `CC(=O)OCC(=O)c1cc(O)c(O)c([N+](=O)[O-])c1`, the melting point was in the range of 166 to 168 °C.

Take `COc1ccc2nc(Nc3ccc(F)cc3C)nc(N(C)c3ccccc3)c2c1`: the melting point lay in the range of 248 to 250 °C.

`O=C1NCN2c3ccc(Cl)cc3[C@H]3CCN4CCC[C@H]1[C@H]4[C@H]32` (racemic) registered a melting point above 250 °C.

The compound `CC1(C)CC(Oc2nc(Cl)nc(N3C(C)(C)CCCC3(C)C)n2)CC(C)(C)N1O` displayed a melting point of 152 to 153 °C.

On to `CC(=O)CC(=O)C=Cc1ccccc1`, for which the melting point was found to be 82 °C.

Turning to `COc1ccccc1N1CCN(CC(O)COc2ccc(OCc3ccccc3)c(C(C)(C)C)c2)CC1` (centres undefined), the melting point fell in the range of 133 to 134 °C.

In the case of `O=C(Nc1ccc(Cl)c(C(F)(F)F)c1)Nc1ccc(-c2ccc(C(F)(F)F)cc2)cc1-c1nnn[nH]1`, the melting point fell in the range of 226 to 228 °C.

For the compound `O=C(Cn1c(-c2ccc(Cl)cc2)nc2ncccc21)c1ccccc1`, the melting point fell in the range of 262 to 263 °C.

`Cc1c(O)c(=O)ccn1CC(C)C`: the melting point lay within 170 to 171 °C.

In turn, `O=C(O)c1cn2c(n1)COc1ccc([N+](=O)[O-])cc1-2` registered a melting point of 310 to 312 °C.

`CC(C)(C)c1cccc(CC(O)CO)c1OCc1ccccc1` (centres undefined) displayed a melting point of 79 to 81 °C.

In turn, `O=S(=O)(c1scc(Br)c1Br)n1nnc2c(Br)cc(C(F)(F)F)cc21` displayed a melting point of 192 to 195 °C.

`O=c1c2sc3ccccc3c2oc2cc(O)cc(O)c12` returned a melting point above 300 °C.

`COc1ccc(SC2CC(=O)NC2=O)cc1` (centres undefined) returned a melting point of 93 to 94 °C.

Regarding `CSCCOc1c(-c2ccc(S(C)(=O)=O)cc2)cnn(CC(F)(F)F)c1=O`, the melting point lay within 103 to 105 °C.

Turning to `O=c1[nH]c2cc(Cl)ccc2n1C1CCN(CCCC(c2ccc(F)cc2)c2ccc(F)cc2)CC1`, the melting point turned out to be 186 °C.

On to `CNc1ncnc(NCc2c(F)cccc2Cl)c1N`, for which the melting point lay in the range of 210 to 213 °C.

For the compound `C=CCn1c(=O)[nH]c(=O)c2[nH]c(C34CC5CC(CC3C5)C4)nc21`, the melting point was above 270 °C.

`COc1ccc2sc(Nc3ccc(OCCN4CCCC4)cc3)nc2c1` yielded a melting point of 167 to 168 °C.

`CNc1onc2c1CCC2` had a melting point of 52 °C.

Regarding `O=C(Cc1ccccc1F)N1C(=O)OC[C@H]1c1ccccc1`, the melting point lay within 110 to 111 °C.

`O=Cc1csc(NC(=O)OCC(Cl)(Cl)Cl)n1`: the melting point lay in the range of 188 to 190 °C.

`O=C(NCC1(O)CCCCCC1)c1c(Cl)ccc2nc(N3CC[C@H](NCCO)C3)ccc12`: the melting point was in the range of 138 to 140 °C.

Regarding `O=c1n(CC2CN(Cc3ccccc3)CCO2)c2ccccc2n1-c1ccccc1` (centres undefined), the melting point was determined as 90 °C.

In turn, `CCOC(=O)C(NC(=O)CS(C)=O)C(=O)OCC` (centres undefined) yielded a melting point of 85 to 87 °C.

The compound `COc1ncc(C=O)cc1Cl` gave a melting point of 152 °C.

In the case of `Nc1cnc(F)c(Br)c1`, the melting point is 91 to 92 °C.

With `COc1ccc2c3cc(C(=O)N4CCCCC4)ccc3n(CC3CCCCC3)c2c1`, the melting point is 91 to 92 °C.

Regarding `CCCCOc1c(CO)n(CC(C)(C)C)c(=O)c2ccc(F)cc12`, the melting point lay in the range of 143 to 144 °C.

Consider `COC(=O)CCc1cc2c(c(C(C)(C)C)c1)OC(=O)C2c1cc(C)ccc1C` (centres undefined), for which the melting point turned out to be 80 °C.

Take `Cc1ccccc1-c1c(NC(=O)Nc2c(C(C)C)cccc2C(C)C)oc2ccc(Cl)cc12`: the melting point came to 240 °C.

The compound `COC(=O)CCCc1cc2nc(Cl)ccc2n1S(=O)(=O)c1cc(C)cc(C)c1` came in with a melting point of 138 °C.

`CCCCCCCCc1ccc(CCC(CO)(CO)NC(C)=O)cc1` registered a melting point of 66 to 68 °C.

In the case of `COc1cc(NNc2nccc(Nc3ccc4nc(C)[nH]c4c3)n2)cc(OC)c1OC`, the melting point amounted to 179 °C.

In the case of `O=C(O)c1cccc(-c2ccc3c(c2)C(c2ccc(Cl)cc2Cl)CO3)c1` (centres undefined), the melting point was in the range of 192 to 193 °C.

Take `CCOC(=O)CNCc1cc(N(C)C)ccc1[N+](=O)[O-]`: the melting point is 70 to 72 °C.

Compound `CC(=O)NC(Cc1csc2ccccc12)C(=O)CCc1cc(C(F)(F)F)cc(C(F)(F)F)c1` (centres undefined) showed a melting point of 83 to 84 °C.

`COC(=O)/C=C\C1C(C(=O)O)C1(C)C` (centres undefined): the melting point was 106 °C.
